According to patent US20160122312A1, “ANTI-VIRAL COMPOUNDS, PHARMACEUTICAL COMPOSITIONS AND METHODS OF USE THEREOF” (KINETA, INC., priority 2013, published 2016):

Assays:
[1] = system: RSV A2 Long strain; assay: RSV antiviral assay in HeLa cells; assay type: cell-based, respiratory syncytial virus; settings: 48 hours post infection, FIG. 2B
[2] = system: influenza virus A/Udorn/72 H3N2 strain; assay: influenza focus-forming assay in 293 cells; assay type: cell-based; settings: for viral infection of 293 cells (decrease in foci, dose dependence): FIGS. 3A, 3B; for IC50: HEK293, 24 h, read-out: Flu IC50; for antiviral activity compared with KIN101 (viral titer): FIG. 3A
[3] = system: Murine EMCV; assay: EMCV in vitro antiviral assay, Huh7 cell viability by MTS; assay type: cell-based, encephalomyocarditis virus; settings: Huh7 cells; for Cell viability post-infection: 5 hours before EMCV, MTS 18 hours after infection
Protocol: In an encephalomyocarditis virus (EMCV) in vitro antiviral assay, Huh7 cells were grown under normal growth conditions and treated with the indicated amount of KIN101 in media containing 0.5% DMSO. The cells were grown in the presence of compound for 5 hours and then infected with 250 pfu Murine EMCV obtained from ATCC #VR-129B. Infected cells were grown for an additional 18 hours and then cell viability was measured using an MTS assay. Negative control cells were treated with buffer alone containing 0.5% DMSO. Interferon treatment was used as a positive control for virus inhibition and was added similar to compound treatments at a final concentration of 10 IU/mL Interferon-α: Intron A, from Schering-Plough. Cell viability was measured using an MTS assay, CellTiter 96® AQueous One Solution Cell Proliferation Assay (MTS), from Promega #G3580. […]

[4] = system: DNV type 2 strain; assay: DNV focus-forming assay in Huh7 cells; assay type: cell-based, Dengue virus; settings: for IC50: Dengue virus, Huh-7, Huh7 cells, treatment after infection, 48 hours replication; for viral infection of Huh7 cells (decrease in foci, dose dependence): FIG. 4B
[5] = system: hCMV AD169 strain; assay: hCMV focus-forming assay in human foreskin fibroblasts; assay type: cell-based, human cytomegalovirus; settings: FIGS. 5A, 5B
[6] = system: interferon-stimulated gene (ISG) induction; assay: preliminary screen of natural product library for ISG induction; assay type: cell-based; settings: preliminary screen of NCI natural product library
Source text: The compounds disclosed herein are described as isoflavone compounds. Isoflavones are best known as natural products isolated from the Leguminosae (legume) family and are usually polyhydroxylated and pharmacologically active as phytoestrogenics and antioxidants. The most recognizable member of this class is genistein, which has been reported to have anticancer activities and to induce thymic and immune changes in mammals (Banerjee, S., et al. (2008) Multi-targeted therapy of cancer by genistein, Cancer Lett 269, 226-242).

SMILES	IC50 [2]	IC50 [4]	further results
CS(=O)(=O)Oc1ccc2c(=O)c(-c3ccc(Br)cc3)coc2c1 [KIN101]	2000 nM	> 5000 nM	RSV viral RNA [1]: decreased RSV viral RNA; viral infection of 293 cells (decrease in foci, dose dependence) [2]: dose-dependent decreases in viral infection; Cell viability post-infection ([3]; 5 units added): ~0.7; Cell viability post-infection ([3]; 10 units added): ~1.2; Cell viability post-infection ([3]; 20 units added): ~1.45; cell viability following infection with EMCV (in words) [3]: protective of cell viability; viral infection of Huh7 cells (decrease in foci, dose dependence) [4]: dose-dependent decreases in viral infection; viral protein in cells infected with DNV ([4]; increasing amounts of compound, FIG. 4A): dose-dependent decrease in viral protein
CS(=O)(=O)Oc1ccc2c(=O)c(-c3ccc(OC(F)(F)F)cc3)coc2c1 [KIN134]	450 nM	3970 nM	antiviral activity compared with KIN101 (viral titer) [2]: improved on this antiviral activity; hCMV as measured by foci (FFU/mL), dose dependence [5]: dose-dependent decreases in hCMV; viral infection of Huh7 cells (decrease in foci, dose dependence) [4]: dose-dependent decreases in viral infection
O=C(COc1ccc2c(=O)c(-c3ccc(Br)cc3)coc2c1)N1CCOCC1 [KIN238]	1200 nM	1180 nM	–
CS(=O)(=O)Oc1ccc2c(=O)c(-c3ccc(C(F)(F)F)cc3)coc2c1 [KIN263]	800 nM	1390 nM	antiviral activity compared with KIN101 (viral titer) [2]: improved on this antiviral activity
CS(=O)(=O)Oc1ccc2c(=O)c(-c3cccc4ccccc34)coc2c1 [KIN267]	–	–	antiviral activity compared with KIN101 (viral titer) [2]: improved on this antiviral activity
CC(C)(C)c1ccc(-c2coc3cc(OS(C)(=O)=O)ccc3c2=O)cc1 [KIN269]	145 nM	542 nM	–
CS(=O)(=O)Oc1ccc2c(=O)c(C3CCCC3)coc2c1 [KIN282]	–	–	antiviral activity compared with KIN101 (viral titer) [2]: improved on this antiviral activity
O=C(COc1ccc2c(=O)c(-c3ccc(OC(F)(F)F)cc3)coc2c1)N1CCOCC1 [KIN290]	1530 nM	3100 nM	–
CN(c1ccc(-c2coc3cc(OS(C)(=O)=O)ccc3c2=O)cc1)S(C)(=O)=O [KIN291]	–	–	antiviral activity compared with KIN101 (viral titer) [2]: improved on this antiviral activity
O=c1c(-c2ccc(OC(F)(F)F)cc2)coc2cc(OC(F)F)ccc12 [KIN299]	709 nM	> 5000 nM	viral infection of 293 cells (decrease in foci, dose dependence) [2]: dose-dependent decreases in viral infection
CC(C)(C)c1ccc(-c2coc3cc(OCC(=O)N4CCOCC4)ccc3c2=O)cc1 [KIN306]	880 nM	2810 nM	antiviral activity compared with KIN101 (viral titer) [2]: improved on this antiviral activity
CS(=O)(=O)Oc1ccc2c(=O)c(-c3ccc(NS(=O)(=O)N4CCCCC4)cc3)coc2c1 [KIN308]	108 nM	4160 nM	antiviral activity compared with KIN101 (viral titer) [2]: improved on this antiviral activity
C#CCOc1ccc2c(=O)c(-c3ccc(C(C)(C)C)cc3)coc2c1 [KIN328]	286 nM	1340 nM	viral infection of 293 cells (decrease in foci, dose dependence) [2]: dose-dependent decreases in viral infection; hCMV as measured by foci (FFU/mL), dose dependence [5]: dose-dependent decreases in hCMV; viral infection of Huh7 cells (decrease in foci, dose dependence) [4]: dose-dependent decreases in viral infection
CS(=O)(=O)Oc1ccc2c(=O)c(-c3ccc(OCC4CC4)cc3)coc2c1 [KIN371]	156 nM	> 5000 nM	viral infection of 293 cells (decrease in foci, dose dependence) [2]: dose-dependent decreases in viral infection
CC(C)(C)COc1ccc(-c2coc3cc(OS(C)(=O)=O)ccc3c2=O)cc1 [KIN372]	37 nM	1690 nM	viral infection of 293 cells (decrease in foci, dose dependence) [2]: dose-dependent decreases in viral infection; hCMV as measured by foci (FFU/mL), dose dependence [5]: dose-dependent decreases in hCMV; viral infection of Huh7 cells (decrease in foci, dose dependence) [4]: dose-dependent decreases in viral infection
CS(=O)(=O)Oc1ccc2c(=O)c(-c3ccc(OCC(F)(F)F)cc3)coc2c1 [KIN376]	103 nM	5000 nM	viral infection of 293 cells (decrease in foci, dose dependence) [2]: dose-dependent decreases in viral infection; hCMV as measured by foci (FFU/mL), dose dependence [5]: dose-dependent decreases in hCMV; viral infection of Huh7 cells (decrease in foci, dose dependence) [4]: dose-dependent decreases in viral infection
CS(=O)(=O)Oc1ccc2c(=O)c(-c3ccc(OC(F)F)cc3)coc2c1 [KIN378]	600 nM	> 5000 nM	–
CN(c1ccc2c(=O)c(-c3ccc(C(C)(C)C)cc3)coc2c1)S(C)(=O)=O [KIN385]	9 nM	293 nM	viral infection of 293 cells (decrease in foci, dose dependence) [2]: dose-dependent decreases in viral infection; hCMV as measured by foci (FFU/mL), dose dependence [5]: dose-dependent decreases in hCMV; viral infection of Huh7 cells (decrease in foci, dose dependence) [4]: dose-dependent decreases in viral infection
CS(=O)(=O)Oc1ccc2c(=O)c(-c3ccc(OCC4CCOCC4)cc3)coc2c1 [KIN389]	200 nM	> 5000 nM	–

SMILES	IC50 [2]	IC50 [4]	further results
CC(C)(C)c1ccc(-c2coc3cc(OCCN4CCOCC4)ccc3c2=O)cc1 [KIN392]	9 nM	650 nM	viral infection of 293 cells (decrease in foci, dose dependence) [2]: dose-dependent decreases in viral infection; hCMV as measured by foci (FFU/mL), dose dependence [5]: dose-dependent decreases in hCMV
CC(=O)N1CCN(CCOc2ccc3c(=O)c(-c4ccc(C(C)(C)C)cc4)coc3c2)CC1 [KIN394]	70 nM	940 nM	viral infection of 293 cells (decrease in foci, dose dependence) [2]: dose-dependent decreases in viral infection; hCMV as measured by foci (FFU/mL), dose dependence [5]: dose-dependent decreases in hCMV
CC(C)(C)c1ccc(-c2coc3cc(OCCN4CCN(S(C)(=O)=O)CC4)ccc3c2=O)cc1 [KIN395]	57 nM	1970 nM	viral infection of 293 cells (decrease in foci, dose dependence) [2]: dose-dependent decreases in viral infection; hCMV as measured by foci (FFU/mL), dose dependence [5]: dose-dependent decreases in hCMV
CN1CCN(CCOc2ccc3c(=O)c(-c4ccc(C(C)(C)C)cc4)coc3c2)CC1 [KIN807]	143 nM	130 nM	–
CC(=O)N1CCN(CCOc2ccc3c(=O)c(-c4ccc(OC(F)(F)F)cc4)coc3c2)CC1 [KIN814]	62 nM	187 nM	–
CN1CCN(CCOc2ccc3c(=O)c(-c4ccc(OC(F)(F)F)cc4)coc3c2)CC1 [KIN823]	153 nM	371 nM	–
O=c1c(-c2ccc(OC(F)(F)F)cc2)coc2cc(OCCN3CCOCC3)ccc12 [KIN824]	76 nM	217 nM	–
CS(=O)(=O)N1CCN(CCOc2ccc3c(=O)c(-c4ccc(OC(F)(F)F)cc4)coc3c2)CC1 [KIN826]	14 nM	196 nM	–
CC(=O)N1CCN(CCOc2ccc3c(=O)c(-c4ccc(Br)cc4)coc3c2)CC1 [KIN844]	2 nM	316 nM	–
CS(=O)(=O)N1CCN(CCOc2ccc3c(=O)c(-c4ccc(Br)cc4)coc3c2)CC1 [KIN848]	4 nM	258 nM	–
CS(=O)(=O)Oc1ccc2c(=O)c(-c3ccc(OCC4CCCOC4)cc3)coc2c1 (stereo not shown) [KIN850]	2 nM	1350 nM	–
CC(C)(C)c1ccc(-c2coc3cc(OCCO)ccc3c2=O)cc1 [KIN851]	417 nM	1190 nM	–
CN(c1ccc2c(=O)c(-c3ccc(OCC(F)(F)F)cc3)coc2c1)S(C)(=O)=O [KIN857]	65 nM	182 nM	–
CNCCOc1ccc2c(=O)c(-c3ccc(C(C)(C)C)cc3)coc2c1 [KIN861]	405 nM	> 5000 nM	–
CN(c1ccc2c(=O)c(-c3ccc(OCC4CC4)cc3)coc2c1)S(C)(=O)=O [KIN865]	234 nM	176 nM	–
CCN(c1ccc2c(=O)c(-c3ccc(C(C)(C)C)cc3)coc2c1)S(C)(=O)=O [KIN866]	27 nM	507 nM	–
CN(c1ccc2c(=O)c(-c3ccc(OCC(C)(C)C)cc3)coc2c1)S(C)(=O)=O [KIN867]	7 nM	304 nM	–
CN(c1ccc2c(=O)c(-c3ccc(OCCC(C)(C)C)cc3)coc2c1)S(C)(=O)=O [KIN882]	30 nM	216 nM	–
O=c1c(-c2ccc(O)cc2)coc2cc(O)cc(O)c12 [genistein]	–	–	interferon-stimulated gene (ISG) induction, screen outcome [6]: validated hit
